# Tested on: rats treated with scopolamine
# Experiment: Zone Quick test (phenol red thread) of tear production in the scopolamine dry eye model
# Type: in vivo, rat
# Conditions: FIG. 1
# Method: Another well-accepted model of dry eye is the scopolamine model which utilizes subcutaneous injections (5 mg in 10 ml) or dermal patch or gel dosage (Durson et al., Invest. Ophthalmol. Vis. Sci. 43: 632-8, 2002) of scopolamine to induce a dry eye condition in rats by parasympatholytic blockade of natural tear production.
# These models and their variations were used to test the efficacy of genistein, delivered as a feed admixture (50 mg/kg low dose and 250 mg/kg high dose) to ameliorate the effects of dry eye. In addition, one test group served as a control group, receiving vehicle feed only with no added isoflavonoids.
# Tear volume was assessed by using absorptive threads impregnated with Phenol Red (zone quick test). Outcome measures are according to criteria published in test instructions as well as comparison with control animal results.
# Tear volume was monitored by the Zone Quick test. This in-life test is a standardized measure of tear production. It consists of a thread impregnated with phenol red which causes a colour change of the length of the thread that becomes wet from tears when the thread is applied to the lacrimal lake. The length (in mm) of the wetted thread is proportional to the tear volume produced.
# 0-CON, 0-SCOP: each 8 control animals (not on scopolamine or on scopolamine)
# 50-SCOP: 8 animals (on scopolamine) suppl. with 50 ppm genistein […]
compound,measurement,setting,value
"O=c1c(-c2ccc(O)cc2)coc2cc(O)cc(O)c12 [genistein, 4′,5,7-trihydroxy-isoflavone]",dose dependence of tear volume restoration,250 vs 50 genistein supplementation groups,more pronounced in the group supplemented with 250 mg than in that with 50 mg
same,"tear volume (Zone Quick test, length of wetted thread)","genistein as feed admixture, 50 or 250 ppm, supplementation 2.5 weeks (MIDTEST) and 5.0 weeks (FINALTEST), compared with control animals",restored their tear volume almost to control values

# From patent US10471041B2, “Use of geninstein” (DSM IP ASSETS B.V., priority 2007, dated 2019)
